From publication PMC7248252, “Accumulation of TB-Active Compounds in Murine Organs Relevant to Infection by Mycobacterium tuberculosis” (Frontiers in Pharmacology, 2020)
Converted amounts (≈) assume the structure as drawn.

Assays:
[1] = in vivo, po, 10 mg/kg
[2] = mouse, tissue homogenate
[3] = tested on: Mycobacterium tuberculosis; settings: determined in different experiments, reference not given; cited from earlier work
[4] = Unbound tissue concentrations (tissue binding by ultracentrifugation of spiked organ homogenate); settings: 1 μg/ml, 4 h, 37°C
[5] = design: method as in Ishida et al., 1999; settings: 120 mg/kg, Streptococcus pneumoniae-infected mouse model; ref Ishida et al., 1999; cited from earlier work
[6] = 25 mg/kg, healthy murine lung tissue; ref Irwin et al., 2016; cited from earlier work

Compound | Cmax (highest concentration) lung tissue ([1]; mouse) [nmol/mg] | estimated organ free fraction concentration compared with MIC90 ([1]; mouse) | unbound fractions [2] | MIC90 [3] [µM] | Ratio bound ([4]; Blood) | Ratio bound ([4]; Brain) | Ratio bound ([4]; Heart) | Ratio bound ([4]; Kidney) | Ratio bound ([4]; Liver) | Ratio bound ([4]; Lung) | Ratio bound ([4]; Spleen) | maximal lung concentration [5] [µg/g] | further results
CCCCCCCCCOc1cc2c(=O)c(C(=O)NCCOCCO)cn(CC)c2cc1OCC [RMB041] | 3.2 | below the MIC90 values | 0.18-0.01 | 1.61 (≈ 0.79 µg/mL) | 0.82 | 0.98 | 0.97 | 0.97 | 0.91 | 0.93 | 0.92 | – | –
O=C(O)c1cn(C2CC2)c2cc(N3CCNCC3)c(F)cc2c1=O [ciprofloxacin] | – | – | – | – | – | – | – | – | – | – | – | 1.10 | –
COc1nc2ccc(Br)cc2cc1[C@@H](c1ccccc1)[C@@](O)(CCN(C)C)c1cccc2ccccc12 [bedaquiline] | – | – | – | – | – | – | – | – | – | – | – | – | Cmax lung tissue [6]: 24 µM
C[C@H]1COc2c(N3CCN(C)CC3)c(F)cc3c(=O)c(C(=O)O)cn1c23 [LVX] | – | – | – | – | – | – | – | – | – | – | – | 5.95 | –
CCN(CC)c1ccc2nc3c4ccccc4c(=Nc4ccccc4)cc-3oc2c1 [PhX1] | 22.4 ± 2.35 | below the MIC90 values | 0.18-0.01 | 0.196 (≈ 0.0771 µg/mL) | 0.88 | 0.98 | 0.98 | 0.97 | 0.99 | 0.97 | 0.94 | – | AUC lung tissue ([1]; male, C57BL/6, mouse): 9669 ± 120.2 min/nmol/mg; AUC heart tissue ([1]; mouse): 12450 ± 45.2 min/nmol/mg; Cmax heart tissue ([1]; mouse): 8.83 ± 3.16 nmol/mg
CC1(C)S[C@@H]2[C@H](NC(=O)[C@H](N)c3ccccc3)C(=O)N2[C@H]1C(=O)O [ampicillin] | – | – | – | – | – | – | – | – | – | – | – | 1.71 | –
